# Target: T1, human PTH1 receptor (Homo sapiens, UniProt Q03431)
# T1 sequence (Q03431 27-593): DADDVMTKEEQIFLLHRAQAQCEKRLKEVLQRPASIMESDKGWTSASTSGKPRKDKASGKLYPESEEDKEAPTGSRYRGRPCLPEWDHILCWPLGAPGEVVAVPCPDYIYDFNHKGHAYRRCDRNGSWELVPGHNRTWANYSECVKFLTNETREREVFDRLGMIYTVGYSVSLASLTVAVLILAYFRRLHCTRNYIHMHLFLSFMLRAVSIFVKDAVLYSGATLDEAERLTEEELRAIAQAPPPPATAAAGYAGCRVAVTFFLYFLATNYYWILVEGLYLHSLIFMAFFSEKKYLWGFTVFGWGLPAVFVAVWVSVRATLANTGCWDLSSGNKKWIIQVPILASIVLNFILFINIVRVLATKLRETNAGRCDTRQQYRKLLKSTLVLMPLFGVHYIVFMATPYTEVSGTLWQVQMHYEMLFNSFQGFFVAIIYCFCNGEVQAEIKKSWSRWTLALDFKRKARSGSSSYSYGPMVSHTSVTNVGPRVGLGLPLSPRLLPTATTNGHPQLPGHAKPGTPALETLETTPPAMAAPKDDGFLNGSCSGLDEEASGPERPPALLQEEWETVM
# Test: In vitro cAMP signal activity in HKRK-B7 cells (LLC-PK1 cells overexpressing the human PTH1 receptor)
# Type: cell-based
# Conditions: HKRK-B7 cells; compound at 1×10^−3 M; cAMP produced as percentage of that produced by hPTH(1-34) at 100 nM
row,Compound,cAMP production activity (%)
1,"Cc1cc(C(=O)N(C)C)ccc1CCS(=O)(=O)N1CCC2(CC1)N=C(c1ccc(Cl)cc1)NC2=O [Compound 87, 4-{2-[2-(4-chloro-phenyl)-4-oxo-1,3,8-triaza-spiro[4.5]dec-1-ene-8-sulfonyl]-ethyl}-3,N,N-trimethyl-benzamide]",6.7%
2,"Cc1cc(C(=O)N(C)C)ccc1CCS(=O)(=O)N1CCC2(CC1)N=C(c1ccc(F)c(Cl)c1)NC2=O [Compound 89, 4-{2-[2-(3-chloro-4-fluoro-phenyl)-4-oxo-1,3,8-triaza-spiro[4.5]dec-1-ene-8-sulfonyl]-ethyl}-3,N,N-trimethyl-benzamide]",96%
3,"Cc1cc(C(=O)N(C)C)ccc1CCS(=O)(=O)N1CCC2(CC1)N=C(c1ccc(F)cc1Cl)NC2=O [Compound 90, 4-{2-[2-(2-chloro-4-fluoro-phenyl)-4-oxo-1,3,8-triaza-spiro[4.5]dec-1-ene-8-sulfonyl]-ethyl}-3,N,N-trimethyl-benzamide]",88%
4,"Cc1cc(C(=O)N(C)C)ccc1CCS(=O)(=O)N1CCC2(CC1)N=C(c1cccc(Br)c1)NC2=O [Compound 91, 4-{2-[2-(3-bromo-phenyl)-4-oxo-1,3,8-triaza-spiro[4.5]dec-1-ene-8-sulfonyl]-ethyl}-3,N,N-trimethyl-benzamide]",73%
5,"Cc1cc(C(=O)N(C)C)ccc1CCS(=O)(=O)N1CCC2(CC1)N=C(c1cccc3c1OC(F)(F)O3)NC2=O [Compound 92, 4-{2-[2-(2,2-difluoro-benzo[1,3]dioxol-4-yl)-4-oxo-1,3,8-triaza-spiro[4.5]dec-1-ene-8-sulfonyl]-ethyl}-3,N,N-trimethyl-benzamide]",97%
6,"Cc1cc(C(=O)N(C)C)ccc1CCS(=O)(=O)N1CCC2(CC1)N=C(c1cccc(Cl)c1F)NC2=O [Compound 93, 4-{2-[2-(3-chloro-2-fluoro-phenyl)-4-oxo-1,3,8-triaza-spiro[4.5]dec-1-ene-8-sulfonyl]-ethyl}-3,N,N-trimethyl-benzamide]",111%
7,"Cc1cc(C(=O)N(C)C)ccc1CCS(=O)(=O)N1CCC2(CC1)N=C(c1ccc(OC(F)(F)C(F)F)cc1)NC2=O [Compound 94, 3,N,N-trimethyl-4-(2-{4-oxo-2-[4-(1,1,2,2-tetrafluoro-ethoxy)-phenyl]-1,3,8-triaza-spiro[4.5]dec-1-ene-8-sulfonyl}-ethyl)-benzamide]",62%
8,"Cc1cc(C2=NC3(CCN(S(=O)(=O)CCc4ccc(C(=O)N(C)C)cc4C)CC3)C(=O)N2)ccc1Cl [Compound 95, 4-{2-[2-(4-chloro-3-methyl-phenyl)-4-oxo-1,3,8-triaza-spiro[4.5]dec-1-ene-8-sulfonyl]-ethyl}-3,N,N-trimethyl-benzamide]",76%
9,"Cc1cc(C(=O)N(C)C)ccc1CCS(=O)(=O)N1CCC2(CC1)N=C(c1ccc(C(F)(F)F)c(F)c1)NC2=O [Compound 96, 4-{2-[2-(3-fluoro-4-trifluoromethyl-phenyl)-4-oxo-1,3,8-triaza-spiro[4.5]dec-1-ene-8-sulfonyl]-ethyl}-3,N,N-trimethyl-benzamide]",70%
10,"Cc1cccc(C2=NC3(CCN(S(=O)(=O)CCc4ccc(C(=O)N(C)C)cc4C)CC3)C(=O)N2)n1 [Compound 97, 3,N,N-trimethyl-4-{2-[2-(6-methyl-pyridin-2-yl)-4-oxo-1,3,8-triaza-spiro[4.5]dec-1-ene-8-sulfonyl]-ethyl}-benzamide]",4.3%
11,"Cc1cc(C(=O)N(C)C)ccc1CCS(=O)(=O)N1CCC2(CC1)N=C(c1ccc(Cl)c(Cl)c1)NC2=O [Compound 98, 4-{2-[2-(3,4-dichloro-phenyl)-4-oxo-1,3,8-triaza-spiro[4.5]dec-1-ene-8-sulfonyl]-ethyl}-3,N,N-trimethyl-benzamide]",75%
12,"Cc1cc(C(=O)N(C)C)ccc1CCS(=O)(=O)N1CCC2(CC1)N=C(c1cccc(OC(F)(F)F)c1)NC2=O [Compound 99, 3,N,N-trimethyl-4-{2-[4-oxo-2-(3-trifluoromethoxy-phenyl)-1,3,8-triaza-spiro[4.5]dec-1-ene-8-sulfonyl]-ethyl}-benzamide]",80%
13,"Cc1cc(C(=O)N(C)C)ccc1CCS(=O)(=O)N1CCC2(CC1)N=C(c1ccc(C(F)(F)F)cc1C(F)(F)F)NC2=O [Compound 100, 4-{2-[2-(2,4-bis-trifluoromethyl-phenyl)-4-oxo-1,3,8-triaza-spiro[4.5]dec-1-ene-8-sulfonyl]-ethyl}-3,N,N-trimethyl-benzamide]",61%
14,"Cc1cc(C(=O)N(C)C)ccc1CCS(=O)(=O)N1CCC2(CC1)N=C(CCc1ccccc1)NC2=O [Compound 101, 3,N,N-trimethyl-4-[2-(4-oxo-2-phenethyl-1,3,8-triaza-spiro[4.5]dec-1-ene-8-sulfonyl)-ethyl]-benzamide]",49%
15,"Cc1nc(C)c(C2=NC3(CCN(S(=O)(=O)CCc4ccc(C(=O)N(C)C)cc4C)CC3)C(=O)N2)s1 [Compound 102, 4-{2-[2-(2,4-dimethyl-thiazol-5-yl)-4-oxo-1,3,8-triaza-spiro[4.5]dec-1-ene-8-sulfonyl]-ethyl}-3,N,N-trimethyl-benzamide]",23%
16,"Cc1cc(C(=O)N(C)C)ccc1CCS(=O)(=O)N1CCC2(CC1)N=C(CC1CCCCC1)NC2=O [Compound 103, 4-[2-(2-cyclohexylmethyl-4-oxo-1,3,8-triaza-spiro[4.5]dec-1-ene-8-sulfonyl)-ethyl]-3,N,N-trimethyl-benzamide]",80%
17,"Cc1cc(C(=O)N(C)C)ccc1CCS(=O)(=O)N1CCC2(CC1)N=C(C1CCC(C(F)(F)F)CC1)NC2=O (stereo not drawn) [Compound 104, 3,N,N-trimethyl-4-{2-[4-oxo-2-(4-trifluoromethyl-cyclohexyl)-1,3,8-triaza-spiro[4.5]dec-1-ene-8-sulfonyl]-ethyl}-benzamide]",79%
18,"Cc1cc(C(=O)N(C)C)ccc1CCS(=O)(=O)N1CCC2(CC1)N=C(c1ccccc1OC(F)(F)F)NC2=O [Compound 105, 3,N,N-trimethyl-4-{2-[4-oxo-2-(2-trifluoromethoxy-phenyl)-1,3,8-triaza-spiro[4.5]dec-1-ene-8-sulfonyl]-ethyl}-benzamide]",78%
19,"Cc1cc(C(=O)N(C)C)ccc1CCS(=O)(=O)N1CCC2(CC1)N=C(c1ccc(OC(F)(F)F)cc1)NC2=O [Compound 106, 3,N,N-trimethyl-4-{2-[4-oxo-2-(4-trifluoromethoxy-phenyl)-1,3,8-triaza-spiro[4.5]dec-1-ene-8-sulfonyl]-ethyl}-benzamide]",94%
20,"Cc1cc(C(=O)N(C)C)ccc1CCS(=O)(=O)N1CCC2(CC1)N=C(c1ccc(F)c(C(F)(F)F)c1)NC2=O [Compound 107, 4-{2-[2-(4-fluoro-3-trifluoromethyl-phenyl)-4-oxo-1,3,8-triaza-spiro[4.5]dec-1-ene-8-sulfonyl]-ethyl}-3,N,N-trimethyl-benzamide]",110%
21,"Cc1cc(C(=O)N(C)C)ccc1CCS(=O)(=O)N1CCC2(CC1)N=C(CCC1CCCCC1)NC2=O [Compound 108, 4-{2-[2-(2-cyclohexyl-ethyl)-4-oxo-1,3,8-triaza-spiro[4.5]dec-1-ene-8-sulfonyl]-ethyl}-3,N,N-trimethyl-benzamide]",62%
22,"Cc1cc(C(=O)N(C)C)ccc1CCS(=O)(=O)N1CCC2(CC1)N=C(c1cccc(F)c1)NC2=O [Compound 109, 4-{2-[2-(3-fluoro-phenyl)-4-oxo-1,3,8-triaza-spiro[4.5]dec-1-ene-8-sulfonyl]-ethyl}-3,N,N-trimethyl-benzamide]",62%
23,"Cc1cc(C(=O)N(C)C)ccc1CCS(=O)(=O)N1CCC2(CC1)N=C(c1cccc(S(C)(=O)=O)c1)NC2=O [Compound 110, 4-{2-[2-(3-methanesulfonyl-phenyl)-4-oxo-1,3,8-triaza-spiro[4.5]dec-1-ene-8-sulfonyl]-ethyl}-3,N,N-trimethyl-benzamide]",25%
24,"Cc1cc(C(=O)N(C)C)ccc1CCS(=O)(=O)N1CCC2(CC1)N=C(c1cccc(C(F)(F)F)c1C)NC2=O [Compound 111, 3,N,N-trimethyl-4-{2-[2-(2-methyl-3-trifluoromethyl-phenyl)-4-oxo-1,3,8-triaza-spiro[4.5]dec-1-ene-8-sulfonyl]-ethyl}-benzamide]",93%
25,"Cc1cc(C(=O)N(C)C)ccc1CCS(=O)(=O)N1CCC2(CC1)N=C(c1cc(C(F)(F)F)ccc1C)NC2=O [Compound 112, 3,N,N-trimethyl-4-{2-[2-(2-methyl-5-trifluoromethyl-phenyl)-4-oxo-1,3,8-triaza-spiro[4.5]dec-1-ene-8-sulfonyl]-ethyl}-benzamide]",77%
26,"Cc1cc(C(=O)N(C)C)ccc1CCS(=O)(=O)N1CCC2(CC1)N=C(c1cccc(C)c1C)NC2=O [Compound 113, 4-{2-[2-(2,3-dimethyl-phenyl)-4-oxo-1,3,8-triaza-spiro[4.5]dec-1-ene-8-sulfonyl]-ethyl}-3,N,N-trimethyl-benzamide]",111%
27,"Cc1cc(C(=O)N(C)C)ccc1CCS(=O)(=O)N1CCC2(CC1)N=C(c1cccc(F)c1C)NC2=O [Compound 114, 4-{2-[2-(3-fluoro-2-methyl-phenyl)-4-oxo-1,3,8-triaza-spiro[4.5]dec-1-ene-8-sulfonyl]-ethyl}-3,N,N-trimethyl-benzamide]",105%

# Source: patent US9169254B2, “Spiroimidazolone derivative” (Chugai Seiyaku Kabushiki Kaisha, priority 2009, dated 2015)
